Assay results as given in PMC8282797, “Strictly regulated agonist-dependent activation of AMPA-R is the key characteristic of TAK-653 for robust synaptic responses and cognitive improvement” (Scientific Reports, 2021).

Experiments:
AMPA-R = assay: Ca2+ influx assay using rat primary hippocampal neurons; assay type: cell-based; set-up: key to Single effect on Ca2+ level: -: No effect or slight effect; +: Potent; ++: Very potent; conditions: for Single effect on Ca2+ level: summary grade
Procedure: Ca^2+ influx assay using primary neurons was performed as previously described. After 5 days of culture, the cells plated on poly-D-lysine coated 96-well plates (Corning Incorporated) at 2 × 10^4 or 5 × 10^4 cells/well were used for experiments with PF-04958242 or TAK-653, respectively. Fluorescent calcium indicator dye solution (Calcium4 assay Kit, Dojindo, Kumamoto, Japan) in Ca^2+ reaction buffer (DMEM, HEPES and BSA) containing Probenecid (Dojindo) was added and incubated for 60 min in 5% CO2 at 37 °C. After washing once, the relative increases in intracellular Ca^2+ levels stimulated by compounds in the presence and absence of AMPA were monitored. Details are described in the Supplementary Information.
Primary cultures of hippocampal neuronal cells were prepared from fetal Sprague-Dawley rats at 19 days of gestation. Rat embryos were decapitated and their whole brains were isolated. Hippocampi were dissected in ice-cold Hanks' Balanced Salt Solutions (HBSS) under a microscope and then dispersed into cells using a neural cell dispersion kit (Sumitomo Bakelite Co., Ltd., Tokyo, Japan). The dissociated cells were suspended in Neurobasal medium containing B27 supplement (Thermo Fisher Scientific Inc.), 2 mM L-glutamine (Lonza, Basel, Switzerland), 100 U/mL penicillin (Lonza), 100 μg/mL streptomycin (Lonza) and 20 μg/mL gentamicin sulfate (Lonza). The cells were plated on poly-D-lysine coated 96-well plates (Corning Incorporated) for Ca^2+ influx assay or on poly-L-lysine coated 96-well plates (Sumitomo Bakelite) for measurement of BDNF protein levels and cultured in a humidified CO2 incubator with 5% CO2 at 37°C.
After 5 days of culture, the cells at 2×10^4 or 5×10^4 cells/well were used for experiments with PF-04958242 or TAK-653, respectively. For TAK-653, after removal of culture medium, 75 µL of fluorescent calcium indicator dye solution (Calcium4 assay Kit, Dojindo, Kumamoto, Japan) in Ca^2+ reaction buffer (DMEM, 10 mM HEPES and 0.1% BSA) containing 1.25 mM Probenecid (Dojindo) was added and incubated for 60 min in 5% CO2 at 37°C and washed once using 75 µL of fluorescent calcium indicator dye solution. After addition of 75 µL of fluorescent calcium indicator dye solution to each well again, the relative increases in intracellular Ca^2+ levels by compounds in the presence and absence of 5 μM AMPA were monitored for 8.5 min by fluorometric imaging plate reader. Activity of the compound was defined as fluorescence intensity integrated over the entire period of measurement. Intensity of 0% was defined as activity in the presence of only DMSO, while 100% was defined as activity in the presence of 5 μM AMPA and 10 μM HBT1. For PF-04958242, after removal of culture medium, 90 µL of fluorescent calcium indicator dye solution (Calcium4 assay Kit, Dojindo) in Ca^2+ reaction buffer (DMEM, 20 mM HEPES and 0.1% BSA) containing 2.5 mM Probenecid (Dojindo) was added and incubated for 60 min in 5% CO2 at 37°C. After addition of 90 µL of fluorescent calcium indicator dye solution to each well again, the relative increases in intracellular Ca^2+ levels by compounds in the presence and absence of 1 μM AMPA were monitored for 2 min in a microplate reader (CellLux, PerkinElmer, Waltham, MA, USA). Activity of the compound was defined as fluorescence intensity integrated over the entire period of measurement. 100% was defined as activity in the presence of 1 μM AMPA and 10 μM HBT1, while intensity of 0% was defined as activity in the presence of 1 μM AMPA or only DMSO for potentiator effect or agonistic effect, respectively. EC50 values were calculated by logistic regression analysis.

rats [1] = assay: Evaluation of convulsion; assay type: in vivo, rat; conditions: 100 mg/kg, p.o., 4 h after dosing
Procedure: The data were extracted from the studies conducted in accordance with the Good Laboratory Practice Regulation. […] The dose levels in the first study and second study were set at "100, 15 and 5 mg/kg, p.o." and "50, 15 and 5 mg/kg, p.o.", respectively. The dosing suspensions were administered into the stomach via a catheter in the morning at the dose volume of 5 mL/kg. Cage side observations to confirm tonic or […] convulsions were conducted before and at 1, 2, 4, 8 and 24 h after dosing in the first study and before and at 1, 4 and 24 h after dosing in the second study.

rats [2] = assay: 5-choice serial reaction time task (5CSRTT); assay type: in vivo, rat; conditions: 0.3 mg/kg, p.o.
Procedure: The experiment consists of two sessions, training and testing session. The training session was initiated with 7-week-old of male Long-Evans rats, and the testing session was conducted at 12-13 months old. Throughout the experimental period, food was restricted to 80-85% of their free-feeding body weight. The training and testing were conducted using four operant chambers enclosed in sound-attenuating boxes (Med Associates Inc., St Albans, VT). Each chamber contained a curved wall with five contiguous apertures. Food pellets were supplied automatically into a magazine located in the opposite wall of the five contiguous apertures in the chamber, and a photocell beam was used to detect head entries into the magazine. In the training session, a pellet was delivered into the magazine at the start of each session to facilitate initiation of the first trial. After a 5 s-intertrial interval (ITI), a light stimulus was presented in one of the five apertures followed by the 5 s-limited hold without light stimulus. […] Rats were required to nose-poke in the illuminated aperture. […] Incorrect responses (responses in non-illuminated apertures), omissions (failure to respond during the limited hold) and premature responses (responses occurring prior to the presentation of the stimulus) were punished by a 5 s-timeout periods with extinction of the house light and no delivery of food. Accuracy was calculated as the number of correct responses / (number of correct responses + number of incorrect responses) × 100. Each session lasted for 35 min or until 100 trials were completed. Rats were trained until they achieved criterion performance (>75% accuracy and <20 omissions) over 3 consecutive days. In the testing session, the duration of light stimuli on an aperture was set to 0.5 s with a variable ITI schedule (4, 5, 7, or 10 s). Equal numbers of each ITI were randomly presented over 100 trials. TAK-653 at 0.3 mg/kg or vehicle was orally administered 2 h prior to testing in a cross-over design. Data were indicated as the mean ± SEM of number of correct responses, omissions, and premature responses. For sub-population analyses, a median split of the population was undertaken based on their correct response scores under vehicle treatment to ensure no interaction with performance changes across the study (Robinson, 2012).

SMILES	Intracellular Ca2+ levels (AMPA-R; single application)	Single effect on Ca2+ level (AMPA-R)	Convulsions (rats [1])	Premature responses (rats [2])	5CSRTT performance in the whole population (rats [2]; 2 h prior to the trial)	Correct responses in the poor performing rats (rats [2]; median split)	Omissions in the poor performing rats (rats [2]; median split)	Intracellular Ca2+ level, Agonistic effect @30 μM (AMPA-R; absence of AMPA, % of 5 μM AMPA + 10 μM HBT1 response) [%]	EC50 (AMPA-R; in the presence of 5 μM AMPA, read-out: Intracellular Ca2+ level, Potentiation EC50) [nM]
Cc1onc(O)c1CC(N)C(=O)O (stereo not drawn) [AMPA, alpha-amino-3-hydroxy-5-methyl-4-isoxazole-propionic acid]	dose-dependently increased	+							
CC1=CN2CCS(=O)(=O)N=C2C(c2ccc(OC3CCCCC3)cc2)=N1 [TAK-653, 9-[4-(Cyclohexyloxy)phenyl]-7-methyl-3,4-dihydropyrazino[2,1-c][1,2,4]thiadiazine 2,2-dioxide]		─	chronic and tonic convulsions in 1 animal	did not affect	no significant improvement	significantly increased	decreased	4.8	930
